From PMC3964211, “Pharmacokinetic modeling optimizes inhibition of the ‘undruggable’ EWS-FLI1 transcription factor in Ewing Sarcoma” (Oncotarget, 2013)

Tests used:
caveolin-1 = assay: Caveolin-1 IHC staining of xenograft tumors; type: in vivo, SCID/bg mice; conditions: xenograft tumors of mice treated BID IP 400 mg/kg, 3 days
Procedure: We evaluated the effect of EWS-FLI1 in animals treated with YK-4-279 upon caveolin-1, a recognized direct gene target whose expression is increased by EWS-FLI1 [22, 23]. […] In addition, the staining pattern changes from membraneous to a more diffuse pattern (Figure 5A).
Two million A4573 or SK-ES Ewing's sarcoma cells in 0.1 mL were injected into an orthotopic paraosseous location, adjacent to the left proximal tibia, in 5-week-old female severe combined immunodeficient-beige (SCID/bg) mice (Harlan Laboratories, Inc., Indianapolis, IN). After primary tumors reached 250 – 300 mm^3 size, mice were randomized and received intraperitoneal injection (IP) with vehicle control (0.25% Lecithin solution or DMSO), (S)-YK-4-279, (R)-YK-4-279 or racemic YK-4-279 at a dose of 400 mg/kg twice a day (BID) for 7 days in a week. The tumor volume was determined by the formula (D × d2/6) × p, where D was the longer diameter and d was the shorter diameter. Tumor volume was monitored every day by caliper until the tumor size reaches 1cm^3. Mice were euthanized and primary tumors were collected. […]
Five micron sections from formalin fxed paraffin embedded tissues were de-paraffinized with xylenes and rehydrated through a graded alcohol series. […] The sections were evaluated, in blinded fashion two times, by a pathologist (B.K.).

SK-ES xenograft = assay: Orthotopic mouse xenograft model, SK-ES, IP dosing; type: in vivo; conditions: for Regression of tumor volume over 3 days: SK-ES xenograft, 3-day, six-dose
Procedure: (§1) A series of models that combined results from in vitro colony assays and in vivo PK data were developed to evaluate several potential dosing schemes for the mice (Supplementary Figures 1A-E). We selected an IP dosing strategy (twice daily (BID) injections of […] racemic mixture) that would maintain a 3 ¼M plasma levels for greater than 72 hours in the mice (Figure 3A). With this IP dosing regimen, xenograft growth of A4573 was 70% less in the YK-4-279 treatment group compared to vehicle control (Figure 3B, p=0.04). […] To confrm the impact of YK-4-279 treatment on xenograft growth, mice with SK-ES xenografts were treated with racemic, (S), or (R)-YK-4-279 until control tumors reached 1 cm^3. Xenograft growth was reduced for those mice receiving both racemic and (S)-YK-4-279 over the control (Figure 3D, p=0.02 and p=0.003, respectively). […] Tumors were analyzed for drug levels of racemic, (R)-, and (S)-YK-4-279. Three of four mice treated with racemic compound had tumor levels of (S)-YK-4-279 that ranged from ~12-35 ¼g eq/g, which correlated with tumor growth ratios of less than 1.0, indicating response to the drug (Figure 3F). Those animals treated with the active (S)-YK-4-279 levels had tumor levels that were below 10 ¼g eq/g (Figure 3F). Tumor levels of (R)-YK-4-279 are also provided (Supplementary Figure 1F).
(§2) In order to evaluate tumors from animals treated in a similar fashion, including resection prior to central necrosis in controls, a 3-day, six-dose, experiment was executed. Treatment was initiated with racemic, (S)-, or (R)-YK-4-279 using BID IP administration at 400 mg/kg when tumors were well established at a volume of 250 to 300 mm^3. Both ES models treated with either racemic or (S)-YK-4-279 regressed by 25–30% of tumor volume over 3 days, while tumors grew in control and (R)-YK-4-279 treated animals (Figures 4A and B). Two hours following the 6th dose, mice were euthanized for tumor analysis. […] To confirm the apoptotic cell death, sections from A4573 tumors were stained with TUNEL (Figures 4D) and there was a 3 – 4 fold increase in TUNEL-positive cells treated with (S)-YK-4-279 compared to (R)-YK-R-279 treated tumors (Figure 4E). […] Levels of each enantiomer were measured in tumor samples and (S)-YK-4-279 levels correlated with clinical regression (Supplemental Figure 2B–E).
(§3) Two million A4573 or SK-ES Ewing's sarcoma cells in 0.1 mL were injected into an orthotopic paraosseous location, adjacent to the left proximal tibia, in 5-week-old female severe combined immunodeficient-beige (SCID/bg) mice (Harlan Laboratories, Inc., Indianapolis, IN). After primary tumors reached 250 – 300 mm^3 size, mice were randomized and received intraperitoneal injection (IP) with vehicle control (0.25% Lecithin solution or DMSO), (S)-YK-4-279, (R)-YK-4-279 or racemic YK-4-279 at a dose of 400 mg/kg twice a day (BID) for 7 days in a week. The tumor volume was determined by the formula (D × d2/6) × p, where D was the longer diameter and d was the shorter diameter. Tumor volume was monitored every day by caliper until the tumor size reaches 1cm^3. Mice were euthanized and primary tumors were collected. For the pharmacodynamics study mice were randomized and received 6 doses treatment with vehicle control (0.25% Lecithin solution or DMSO), (S)-YK-4-279, (R)-YK-4-279 or racemic YK-4-279 at a dose of 400 mg/kg twice a day (BID). Mice were euthanized after 2 hours of last 6th dosing and primary tumors were collected. Animal studies were approved by an Institutional Animal Care and Use Committee of the Georgetown University.
The plasma and tumor sample analysis was performed using calibration standards and Quality Control (QC) samples prepared in control rat or mouse plasma and tumor tissues. Plasma and tumor calibration standards were prepared from stock solutions of YK-4-279. […]

A4573 xenograft = assay: Orthotopic mouse xenograft model, A4573, IP dosing; type: in vivo, SCID/bg mice; conditions: for Tumor histology (hematoxylin and eosin): A4573 tumors, two hours following the 6th dose; for Tumor histology (hematoxylin and eosin) / Regression of tumor volume over 3 days: BID IP 400 mg/kg; for Regression of tumor volume over 3 days: A4573 xenograft, 3-day, six-dose
Procedure: as §1, §2
as §3, with “Animal studies were approved by an Institutional Animal Care and Use Committee of the Georgetown University.” left out

| Structure (SMILES) | Caveolin-1 immunohistochemical staining (caveolin-1) | Regression of tumor volume over 3 days (SK-ES xenograft; BID IP 400 mg/kg) | Tumor histology (hematoxylin and eosin) (A4573 xenograft) | Regression of tumor volume over 3 days (A4573 xenograft) | Overall survival (SK-ES xenograft; SK-ES xenograft mice, BID IP 400 mg/kg, p=0.013 vs control) | Xenograft growth less than control group (SK-ES xenograft; SK-ES xenograft mice, BID IP racemic mixture (375 mg/kg in text, 400 mg/kg in Figure 3 legend), p=0.02) | Xenograft growth over the control (SK-ES xenograft; SK-ES xenografts, BID IP 400 mg/kg until control tumors reached 1 cm^3) | Tumor growth ratios (SK-ES xenograft; SK-ES xenografts, three of four mice treated with racemic compound) | Xenograft growth less than vehicle control (A4573 xenograft; A4573 xenograft mice, BID IP racemic mixture (375 mg/kg in text, 400 mg/kg in Figure 3 legend), p=0.04) |
| --- | --- | --- | --- | --- | --- | --- | --- | --- | --- |
| COc1ccc(C(=O)C[C@]2(O)C(=O)Nc3c(Cl)ccc(Cl)c32)cc1 [(R)-YK-4-279] | expected membrane caveolin-1 expression | tumors grew | healthy tumor cells, but fewer mitotic figures than the DMSO control | tumors grew | – | – | – | – | – |
| COc1ccc(C(=O)CC2(O)C(=O)Nc3c(Cl)ccc(Cl)c32)cc1 (stereo not shown) [YK-4-279] | reduced caveolin-1 staining | 25–30% | vacuolar cell death and nuclear fragmentation consistent with apoptosis | 25–30% | improved overall survival | 70% | reduced | less than 1.0 | 70% |
